Source: paper PMC5564600 (Oncotarget, 2017)

Key:
Test in all cases: biochemical
Assay type in all cases: binding
panel of 442 kinases [1] = molecular target: T1, panel of 442 kinases (Homo sapiens, UniProt Q9P0L2); settings: kinase MARK1; for remaining activity at 1 µM: read-out: % of control at 1 µM
T1 construct: purchased Ambit Biosciences (scanMAXX KINOMEscan)

panel of 442 kinases [2] = molecular target: T2, panel of 442 kinases (Homo sapiens, UniProt Q16659); settings: ERK3; for remaining activity at 1 µM: read-out: % of control at 1 µM
T2 construct: purchased Ambit Biosciences (scanMAXX KINOMEscan)

panel of 442 kinases [3] = molecular target: T3, panel of 442 kinases (Homo sapiens, UniProt P78368); settings: CSNK1G2; for remaining activity at 1 µM: read-out: % of control at 1 µM
T3 construct: purchased Ambit Biosciences (scanMAXX KINOMEscan)

panel of 442 kinases [4] = molecular target: T4, panel of 442 kinases (Homo sapiens, UniProt P42680); settings: kinase TEC; for remaining activity at 1 µM: read-out: TEC (% of control at 1 µM)
T4 construct: purchased Ambit Biosciences (scanMAXX KINOMEscan)
T4 sequence (P42680 1-631): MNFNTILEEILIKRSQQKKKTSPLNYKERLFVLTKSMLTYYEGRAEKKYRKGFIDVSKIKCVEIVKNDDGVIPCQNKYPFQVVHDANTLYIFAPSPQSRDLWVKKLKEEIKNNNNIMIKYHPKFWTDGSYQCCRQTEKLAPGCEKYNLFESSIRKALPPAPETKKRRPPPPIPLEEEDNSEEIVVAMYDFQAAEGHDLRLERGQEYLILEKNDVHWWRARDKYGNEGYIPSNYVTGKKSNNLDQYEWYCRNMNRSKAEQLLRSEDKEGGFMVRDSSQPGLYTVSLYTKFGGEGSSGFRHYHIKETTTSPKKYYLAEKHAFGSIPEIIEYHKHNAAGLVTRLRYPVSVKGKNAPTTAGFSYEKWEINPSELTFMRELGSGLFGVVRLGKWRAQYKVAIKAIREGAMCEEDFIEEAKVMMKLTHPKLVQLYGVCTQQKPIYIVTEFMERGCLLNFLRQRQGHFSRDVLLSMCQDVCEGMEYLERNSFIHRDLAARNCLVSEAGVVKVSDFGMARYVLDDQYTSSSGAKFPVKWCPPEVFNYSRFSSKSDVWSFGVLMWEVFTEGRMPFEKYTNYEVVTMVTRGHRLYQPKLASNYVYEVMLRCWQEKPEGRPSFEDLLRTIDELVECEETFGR

panel of 442 kinases [5] = molecular target: T5, panel of 442 kinases (Homo sapiens, UniProt Q9H2K8); settings: kinase TAOK3; for remaining activity at 1 µM: read-out: TAOK3 (% of control at 1 µM)
T5 construct: purchased Ambit Biosciences (scanMAXX KINOMEscan)
T5 sequence (Q9H2K8 1-898): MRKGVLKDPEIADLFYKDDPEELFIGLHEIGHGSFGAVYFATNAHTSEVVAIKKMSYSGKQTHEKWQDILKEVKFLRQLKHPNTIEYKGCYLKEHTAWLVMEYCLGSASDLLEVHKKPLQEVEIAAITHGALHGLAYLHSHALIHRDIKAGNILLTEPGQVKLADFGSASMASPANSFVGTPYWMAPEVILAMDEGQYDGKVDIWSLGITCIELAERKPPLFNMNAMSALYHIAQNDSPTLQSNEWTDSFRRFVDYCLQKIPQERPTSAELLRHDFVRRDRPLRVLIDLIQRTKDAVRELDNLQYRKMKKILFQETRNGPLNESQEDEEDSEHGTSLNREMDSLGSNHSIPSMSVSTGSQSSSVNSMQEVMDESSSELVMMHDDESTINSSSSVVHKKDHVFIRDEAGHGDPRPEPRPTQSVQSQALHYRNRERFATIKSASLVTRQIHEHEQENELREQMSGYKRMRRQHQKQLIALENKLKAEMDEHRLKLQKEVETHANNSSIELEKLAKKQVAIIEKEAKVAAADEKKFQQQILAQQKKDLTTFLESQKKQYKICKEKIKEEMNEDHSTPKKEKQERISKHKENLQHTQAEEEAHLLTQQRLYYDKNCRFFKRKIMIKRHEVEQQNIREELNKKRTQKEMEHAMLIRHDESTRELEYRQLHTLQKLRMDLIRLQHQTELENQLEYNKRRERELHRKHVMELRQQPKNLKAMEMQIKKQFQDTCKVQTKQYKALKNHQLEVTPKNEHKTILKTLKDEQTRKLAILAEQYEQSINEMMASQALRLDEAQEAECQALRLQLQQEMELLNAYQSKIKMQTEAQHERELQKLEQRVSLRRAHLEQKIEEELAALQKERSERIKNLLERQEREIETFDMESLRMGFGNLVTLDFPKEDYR

panel of 442 kinases [6] = molecular target: T6, panel of 442 kinases (Homo sapiens, UniProt Q13705); settings: ACVR2B; for remaining activity at 1 µM: read-out: % of control at 1 µM
T6 construct: purchased Ambit Biosciences (scanMAXX KINOMEscan)

panel of 442 kinases [7] = molecular target: T7, panel of 442 kinases (Homo sapiens, UniProt Q8TD19); settings: kinase NEK9; for remaining activity at 1 µM: read-out: % of control at 1 µM
T7 construct: purchased Ambit Biosciences (scanMAXX KINOMEscan)
T7 sequence (Q8TD19 1-979): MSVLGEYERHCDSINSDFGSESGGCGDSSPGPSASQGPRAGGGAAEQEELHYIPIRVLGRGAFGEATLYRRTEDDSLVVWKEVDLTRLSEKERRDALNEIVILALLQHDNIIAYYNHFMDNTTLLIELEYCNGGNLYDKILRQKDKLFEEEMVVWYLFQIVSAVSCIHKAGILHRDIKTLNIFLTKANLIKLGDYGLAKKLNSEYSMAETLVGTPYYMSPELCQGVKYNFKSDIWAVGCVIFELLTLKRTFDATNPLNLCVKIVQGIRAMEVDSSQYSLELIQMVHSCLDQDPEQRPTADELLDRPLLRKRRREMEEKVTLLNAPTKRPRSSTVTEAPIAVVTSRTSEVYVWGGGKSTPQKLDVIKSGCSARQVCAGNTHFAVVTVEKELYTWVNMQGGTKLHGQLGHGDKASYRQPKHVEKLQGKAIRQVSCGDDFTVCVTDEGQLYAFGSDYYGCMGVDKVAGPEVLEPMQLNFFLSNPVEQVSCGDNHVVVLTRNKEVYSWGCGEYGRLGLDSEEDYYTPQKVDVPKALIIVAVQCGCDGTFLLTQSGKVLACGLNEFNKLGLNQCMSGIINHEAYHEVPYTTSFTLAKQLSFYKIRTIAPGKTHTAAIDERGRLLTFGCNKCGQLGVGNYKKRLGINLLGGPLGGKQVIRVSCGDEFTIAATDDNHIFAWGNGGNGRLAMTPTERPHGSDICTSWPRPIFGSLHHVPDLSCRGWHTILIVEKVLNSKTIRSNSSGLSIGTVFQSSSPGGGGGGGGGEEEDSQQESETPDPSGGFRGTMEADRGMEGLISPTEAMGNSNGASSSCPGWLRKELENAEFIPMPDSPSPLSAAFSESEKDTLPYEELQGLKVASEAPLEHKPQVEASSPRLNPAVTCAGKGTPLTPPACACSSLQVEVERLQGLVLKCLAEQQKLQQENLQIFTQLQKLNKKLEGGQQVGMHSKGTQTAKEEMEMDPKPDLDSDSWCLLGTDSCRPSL

[8] = 10 µM, read-out: % of control at 10 µM

T3 sequence (P78368 whole entry): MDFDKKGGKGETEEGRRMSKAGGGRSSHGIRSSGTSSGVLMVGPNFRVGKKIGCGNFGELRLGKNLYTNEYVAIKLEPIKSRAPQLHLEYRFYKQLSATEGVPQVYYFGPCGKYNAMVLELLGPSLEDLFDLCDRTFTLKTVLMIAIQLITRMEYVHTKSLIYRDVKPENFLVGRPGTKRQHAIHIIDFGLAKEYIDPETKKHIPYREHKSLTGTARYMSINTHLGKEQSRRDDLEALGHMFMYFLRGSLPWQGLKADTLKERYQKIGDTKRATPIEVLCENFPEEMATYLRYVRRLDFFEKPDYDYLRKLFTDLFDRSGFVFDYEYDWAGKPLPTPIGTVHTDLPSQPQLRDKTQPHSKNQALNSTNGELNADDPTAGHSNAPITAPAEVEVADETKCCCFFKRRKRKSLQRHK
T1 sequence (Q9P0L2 whole entry): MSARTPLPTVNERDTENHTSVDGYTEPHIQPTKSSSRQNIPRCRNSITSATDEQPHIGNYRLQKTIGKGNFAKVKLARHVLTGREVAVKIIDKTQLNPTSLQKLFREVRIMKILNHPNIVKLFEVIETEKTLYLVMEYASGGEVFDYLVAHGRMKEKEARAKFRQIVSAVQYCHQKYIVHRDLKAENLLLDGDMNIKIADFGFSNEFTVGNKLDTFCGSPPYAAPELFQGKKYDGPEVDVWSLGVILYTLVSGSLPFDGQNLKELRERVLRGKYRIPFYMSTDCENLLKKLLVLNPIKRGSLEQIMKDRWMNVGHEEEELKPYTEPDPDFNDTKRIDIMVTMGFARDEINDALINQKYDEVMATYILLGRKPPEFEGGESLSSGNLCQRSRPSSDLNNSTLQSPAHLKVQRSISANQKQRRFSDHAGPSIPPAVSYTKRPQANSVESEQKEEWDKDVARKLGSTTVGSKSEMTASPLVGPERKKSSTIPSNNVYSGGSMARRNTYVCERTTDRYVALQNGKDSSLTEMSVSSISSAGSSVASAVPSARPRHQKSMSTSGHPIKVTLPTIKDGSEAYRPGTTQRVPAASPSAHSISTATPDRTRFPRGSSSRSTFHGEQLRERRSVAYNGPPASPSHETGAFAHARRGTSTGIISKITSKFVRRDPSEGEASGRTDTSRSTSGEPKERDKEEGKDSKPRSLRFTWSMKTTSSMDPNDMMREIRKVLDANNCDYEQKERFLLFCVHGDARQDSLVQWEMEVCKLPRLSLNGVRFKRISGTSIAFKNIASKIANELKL
T6 sequence (Q13705 19-512): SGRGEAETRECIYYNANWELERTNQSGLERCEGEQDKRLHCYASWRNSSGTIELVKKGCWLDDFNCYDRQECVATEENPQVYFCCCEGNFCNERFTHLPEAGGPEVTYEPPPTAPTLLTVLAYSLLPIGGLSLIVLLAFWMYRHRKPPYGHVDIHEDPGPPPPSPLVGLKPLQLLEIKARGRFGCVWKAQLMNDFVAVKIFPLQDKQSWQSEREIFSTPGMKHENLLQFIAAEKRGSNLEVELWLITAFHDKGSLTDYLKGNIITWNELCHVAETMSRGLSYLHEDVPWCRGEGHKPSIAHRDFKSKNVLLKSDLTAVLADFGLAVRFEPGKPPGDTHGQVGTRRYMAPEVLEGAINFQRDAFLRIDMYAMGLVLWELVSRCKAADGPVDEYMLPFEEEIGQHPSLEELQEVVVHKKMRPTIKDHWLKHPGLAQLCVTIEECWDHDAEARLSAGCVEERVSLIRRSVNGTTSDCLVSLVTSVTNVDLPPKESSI
T2 sequence (Q16659 whole entry): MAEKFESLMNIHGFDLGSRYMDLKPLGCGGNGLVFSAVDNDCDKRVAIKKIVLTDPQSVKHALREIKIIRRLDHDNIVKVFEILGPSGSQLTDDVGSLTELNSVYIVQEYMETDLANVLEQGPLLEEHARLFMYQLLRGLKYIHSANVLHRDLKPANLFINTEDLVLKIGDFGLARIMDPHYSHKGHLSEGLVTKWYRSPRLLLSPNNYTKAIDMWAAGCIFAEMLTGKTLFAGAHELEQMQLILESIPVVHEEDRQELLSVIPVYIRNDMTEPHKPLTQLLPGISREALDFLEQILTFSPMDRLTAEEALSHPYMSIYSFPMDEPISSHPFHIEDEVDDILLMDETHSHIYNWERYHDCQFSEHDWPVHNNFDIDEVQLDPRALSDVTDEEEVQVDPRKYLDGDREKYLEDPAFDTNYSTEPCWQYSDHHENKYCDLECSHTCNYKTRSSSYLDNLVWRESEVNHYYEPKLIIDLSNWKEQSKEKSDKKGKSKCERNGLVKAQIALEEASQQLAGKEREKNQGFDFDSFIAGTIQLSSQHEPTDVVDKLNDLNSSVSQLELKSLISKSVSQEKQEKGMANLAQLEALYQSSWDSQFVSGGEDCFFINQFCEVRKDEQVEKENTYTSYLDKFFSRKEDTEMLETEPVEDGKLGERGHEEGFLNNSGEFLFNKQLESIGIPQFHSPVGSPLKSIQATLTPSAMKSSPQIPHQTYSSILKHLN

| Compound | remaining activity at 1 µM (panel of 442 kinases [1]) [%] | remaining activity at 10 µM (panel of 442 kinases [1]; [8]) [%] | remaining activity at 1 µM (panel of 442 kinases [2]) [%] | remaining activity at 10 µM (panel of 442 kinases [2]; [8]) [%] | remaining activity at 1 µM (panel of 442 kinases [3]) [%] | remaining activity at 10 µM (panel of 442 kinases [3]; [8]) [%] | remaining activity at 1 µM (panel of 442 kinases [4]) [%] | remaining activity at 10 µM (panel of 442 kinases [4]; 10 µM, read-out: TEC (% of control at 10 µM)) [%] | remaining activity at 1 µM (panel of 442 kinases [5]) [%] | remaining activity at 10 µM (panel of 442 kinases [5]; 10 µM, read-out: TAOK3 (% of control at 10 µM)) [%] | remaining activity at 1 µM (panel of 442 kinases [6]) [%] | remaining activity at 10 µM (panel of 442 kinases [6]; [8]) [%] | remaining activity at 1 µM (panel of 442 kinases [7]) [%] | remaining activity at 10 µM (panel of 442 kinases [7]; [8]) [%] |
| --- | --- | --- | --- | --- | --- | --- | --- | --- | --- | --- | --- | --- | --- | --- |
| Nc1cc(C(F)(F)F)c(-c2cc(N3CCOCC3)nc(N3CCOCC3)n2)cn1 [Buparlisib] | 100 | 100 | 96 | 99 | 100 | 100 | 87 | 100 | 89 | 78 | 100 | 100 | 94 | 100 |
| Cn1c(=O)n(-c2ccc(C(C)(C)C#N)cc2)c2c3cc(-c4cnc5ccccc5c4)ccc3ncc21 [Dactolisib, 2-methyl-2-[4-(3-methyl-2-oxo-8-quinolin-3-yl-2,3-dihydroimidazo[4,5-c]quinolin-1-yl)-phenyl] propionitrile] | 82 | – | 97 | – | 80 | – | 96 | – | 100 | – | 85 | – | 96 | – |
| COc1ncc(-c2ccc3nccc(-c4ccnnc4)c3c2)cc1NS(=O)(=O)c1ccc(F)cc1F [Omipalisib] | 100 | – | 85 | – | 100 | – | 100 | – | 100 | – | 100 | – | 100 | – |
| FC(F)c1nc2ccccc2n1-c1nc(N2CCOCC2)nc(N2CCOCC2)n1 [ZSTK474, 2-(difluoromethyl)-1-[4,6-di(4-morpholinyl)-1,3,5-triazin-2-yl]-1H-benzimidazole] | 98 | – | 100 | – | 90 | – | 89 | – | 92 | – | 89 | – | 84 | – |
